Assay results taken from article PMC10141580, “Cyclic Dichalcogenides Extend the Reach of Bioreductive Prodrugs to Harness Thiol/Disulfide Oxidoreductases: Applications to seco-Duocarmycins Targeting the Thioredoxin System” (ACS Central Science, 2023).
Like-named read-outs stand apart in the source and are kept apart here.

System: NCI-60 standardized human tumor cell line panel
Assay: cells
Type: cell-based
Conditions: for NCI-60 screening: Log(GI50): log10 of GI50 in M; for NCI-60 screening: Log(RedIndex): log10 reductive index vs P-CC60

Compound: COc1cc2cc(C(=O)N3C[C@@H](CCl)c4c3cc(OC(=O)N(CCC(=O)N3CCN(C)CC3)[C@H]3CCSSC3)c3ccccc43)[nH]c2c(OC)c1OC [P-SS60-CBI-TMI]
- NCI-60 screening: Log(GI50) (786-0 (RE) cell line): -6.79
- NCI-60 screening: Log(RedIndex) (786-0 (RE) cell line): 1.02
- GI50 (786-0 (RE) cell line, read-out: NCI-60 screening: Raw GI50): 0.16 µM
- GI50 (786-0, read-out: GI50): 0.16 µM
- NCI-60 screening: Log(GI50) (A498 (RE) cell line): -6.6
- NCI-60 screening: Log(RedIndex) (A498 (RE) cell line): 1.04
- GI50 (A498 (RE) cell line, read-out: NCI-60 screening: Raw GI50): 0.25 µM
- GI50 (A498, read-out: GI50): 0.25 µM
- GI50 (A549/ATCC, read-out: GI50): 0.15 µM
- NCI-60 screening: Log(GI50) (ACHN (RE) cell line): -7.25
- NCI-60 screening: Log(RedIndex) (ACHN (RE) cell line): 0.94
- GI50 (ACHN (RE) cell line, read-out: NCI-60 screening: Raw GI50): 0.056 µM
- GI50 (ACHN, read-out: GI50): 0.056 µM
- GI50 (BT-549, read-out: GI50): 0.23 µM
- NCI-60 screening: Log(GI50) (CAKI-1 (RE) cell line): -6.57
- NCI-60 screening: Log(RedIndex) (CAKI-1 (RE) cell line): 0.74
- GI50 (CAKI-1 (RE) cell line, read-out: NCI-60 screening: Raw GI50): 0.27 µM
- GI50 (CAKI-1, read-out: GI50): 0.27 µM
- GI50 (CCRF-CEM, read-out: GI50): 0.22 µM
- GI50 (COLO 205, read-out: GI50): 0.34 µM
- NCI-60 screening: Log(GI50) (DU-145 (PR) cell line): -7.23
- NCI-60 screening: Log(RedIndex) (DU-145 (PR) cell line): 0.89
- GI50 (DU-145, read-out: GI50): 0.059 µM
- GI50 (EKVX, read-out: GI50): 0.32 µM
- GI50 (HCC-2998, read-out: GI50): 0.16 µM
- GI50 (HCT-15, read-out: GI50): 0.26 µM
- GI50 (HCT-116, read-out: GI50): 0.16 µM
- GI50 (HL-60(TB), read-out: GI50): 0.12 µM
- GI50 (HOP-62, read-out: GI50): 0.11 µM
- GI50 (HOP-92, read-out: GI50): 0.35 µM
- GI50 (HT29, read-out: GI50): 0.27 µM
- NCI-60 screening: Log(GI50) (IGROV1 (OV) cell line): -6.3
- NCI-60 screening: Log(RedIndex) (IGROV1 (OV) cell line): 0.66
- GI50 (IGROV1, read-out: GI50): 0.5 µM
- GI50 (K-562, read-out: GI50): 0.16 µM
- GI50 (KM12, read-out: GI50): 0.27 µM
- GI50 (LOX IMVI, read-out: GI50): 0.21 µM
- GI50 (M14, read-out: GI50): 0.19 µM
- GI50 (MALME-3M, read-out: GI50): 0.28 µM
- GI50 (MCF7, read-out: GI50): 0.035 µM
- GI50 (MDA-MB-435, read-out: GI50): 0.21 µM
- GI50 (MDA-MB-468, read-out: GI50): 0.17 µM
- GI50 (MOLT-4, read-out: GI50): 0.09 µM
- GI50/IC50, mean (NCI-60 vs ProliFiler, 19 overlapping cell lines): 4.0
- GI50 (NCI-H23, read-out: GI50): 0.055 µM
- GI50 (NCI-H226, read-out: GI50): 0.43 µM
- NCI-60 screening: Log(GI50) (NCI-H460 (LC) cell line): -7.25
- NCI-60 screening: Log(RedIndex) (NCI-H460 (LC) cell line): 0.96
- GI50 (NCI-H460 (LC) cell line, read-out: NCI-60 screening: Raw GI50): 0.056 µM
- GI50 (NCI-H460, read-out: GI50): 0.056 µM
- NCI-60 screening: Log(GI50) (NCI-H522 (LC) cell line): -6.58
- NCI-60 screening: Log(RedIndex) (NCI-H522 (LC) cell line): 0.81
- GI50 (NCI-H522 (LC) cell line, read-out: NCI-60 screening: Raw GI50): 0.26 µM
- GI50 (NCI-H522, read-out: GI50): 0.26 µM
- NCI-60 screening: Log(GI50) (OVCAR-3 (OV) cell line): -6.63
- NCI-60 screening: Log(RedIndex) (OVCAR-3 (OV) cell line): 0.95
- GI50 (OVCAR-3, read-out: GI50): 0.24 µM
- NCI-60 screening: Log(GI50) (OVCAR-4 (OV) cell line): -6.33
- NCI-60 screening: Log(RedIndex) (OVCAR-4 (OV) cell line): 0.7
- GI50 (OVCAR-4, read-out: GI50): 0.46 µM
- NCI-60 screening: Log(GI50) (OVCAR-5 (OV) cell line): -6.51
- NCI-60 screening: Log(RedIndex) (OVCAR-5 (OV) cell line): 1.22
- GI50 (OVCAR-5, read-out: GI50): 0.31 µM
- NCI-60 screening: Log(GI50) (OVCAR-8 (OV) cell line): -6.73
- NCI-60 screening: Log(RedIndex) (OVCAR-8 (OV) cell line): 0.95
- GI50 (OVCAR-8 (OV) cell line, read-out: NCI-60 screening: Raw GI50): 0.19 µM
- GI50 (OVCAR-8, read-out: GI50): 0.19 µM
- NCI-60 screening: Log(GI50) (PC-3 (PR) cell line): -6.14
- NCI-60 screening: Log(RedIndex) (PC-3 (PR) cell line): 0.64
- GI50 (PC-3, read-out: GI50): 0.72 µM
- GI50 (RPMI-8226, read-out: GI50): 0.22 µM
- NCI-60 screening: Log(GI50) (RXF 393 (RE) cell line): -6.83
- NCI-60 screening: Log(RedIndex) (RXF 393 (RE) cell line): 0.85
- GI50 (RXF 393 (RE) cell line, read-out: NCI-60 screening: Raw GI50): 0.15 µM
- GI50 (RXF 393, read-out: GI50): 0.15 µM
- GI50 (SF-268, read-out: GI50): 0.19 µM
- GI50 (SF-295, read-out: GI50): 0.14 µM
- GI50 (SF-539, read-out: GI50): 0.17 µM
- GI50 (SK-MEL-5, read-out: GI50): 0.17 µM
- GI50 (SK-MEL-28, read-out: GI50): 0.29 µM
- NCI-60 screening: Log(GI50) (SK-OV-3 (OV) cell line): -6.58
- NCI-60 screening: Log(RedIndex) (SK-OV-3 (OV) cell line): 0.91
- GI50 (SK-OV-3 (OV) cell line, read-out: NCI-60 screening: Raw GI50): 0.26 µM
- GI50 (SK-OV-3, read-out: GI50): 0.26 µM
- NCI-60 screening: Log(GI50) (SN12C (RE) cell line): -6.54
- NCI-60 screening: Log(RedIndex) (SN12C (RE) cell line): 0.62
- GI50 (SN12C (RE) cell line, read-out: NCI-60 screening: Raw GI50): 0.29 µM
- GI50 (SN12C, read-out: GI50): 0.29 µM
- GI50 (SNB-19, read-out: GI50): 0.25 µM
- GI50 (SR, read-out: GI50): 0.034 µM
- GI50 (SW-620, read-out: GI50): 0.22 µM
- GI50 (T-47D, read-out: GI50): 0.7 µM
- NCI-60 screening: Log(GI50) (TK-10 (RE) cell line): -5.47
- NCI-60 screening: Log(RedIndex) (TK-10 (RE) cell line): -0.07
- GI50 (TK-10, read-out: GI50): 3.4 µM
- GI50 (U251, read-out: GI50): 0.16 µM
